The values below come from PMC5330258 (Journal of medicinal chemistry, 2016).

For one data set, the system named is SKMEL-188 melanoma cells. Description: Antiproliferative activity on melanoma cells. The class given is cell-based. Particulars: compared with parent compounds and 1,25(OH)2D3.
The target in another data set is T1, VDR (Homo sapiens, UniProt P11473).
T1 sequence (P11473 1-427): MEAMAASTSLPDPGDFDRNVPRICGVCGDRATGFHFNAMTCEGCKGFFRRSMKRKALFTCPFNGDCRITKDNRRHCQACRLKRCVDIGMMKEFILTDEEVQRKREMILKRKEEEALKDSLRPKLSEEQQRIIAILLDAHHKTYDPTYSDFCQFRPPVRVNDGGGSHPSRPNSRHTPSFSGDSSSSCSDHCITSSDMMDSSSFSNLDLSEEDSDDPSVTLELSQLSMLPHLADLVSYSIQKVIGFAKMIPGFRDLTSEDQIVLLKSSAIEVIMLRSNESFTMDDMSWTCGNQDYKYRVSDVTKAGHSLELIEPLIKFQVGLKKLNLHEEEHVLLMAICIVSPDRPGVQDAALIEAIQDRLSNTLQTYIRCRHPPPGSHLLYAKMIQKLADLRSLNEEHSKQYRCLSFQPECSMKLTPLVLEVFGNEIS
Kind of data set: Lentiviral VDRE-luciferase transcriptional reporter assay. The class given is cell-based. Particulars: for VDR activation (in words): concentration up to 1000 nM, all three cell lines (HaCaT, Caco-2, Jurkat); for EC50: 24 h, NS: no significance. (In general: In a reporter assay the amount or activity of a reporter protein is the signal.)

The conditions of data set [1]: cited from earlier work.

Read-outs that look alike come from different tables or passages of the source.

By EC50 is commonly meant the concentration needed to bring the measured effect to its halfway point.

In the case of `C=C1/C(=C\C=C2/CCC[C@@]3(C)[C@H]2CC[C@@H]3[C@@](C)(O)C[C@@H](O)CC(C)C)C[C@@H](O)C[C@@H]1O` [18b, 1α,20S,23S(OH)3D3], the “Maximal inhibition values (in words)” value in the data set on SKMEL-188 melanoma cells was “higher maximal inhibition values”.
Take `C=C1CC[C@H](O)C/C1=C/C=C1\CCC[C@@]2(C)[C@H]1CC[C@@H]2[C@@](C)(O)C[C@H](O)CC(C)C` [17a, 20S,23R(OH)2D3]: the “VDR activation (in words)” value at VDR is “strong stimulatory effect”.
As for `C=C1CC[C@H](O)C/C1=C/C=C1\CCC[C@@]2(C)[C@H]1CC[C@@H]2[C@@](C)(O)CCCC(C)C` [20S(OH)D3, 20S-hydroxyvitamin D3], in data set [1] (doses up to 30 μg/kg in mice), the Calcemic effect result is on record as “noncalcemic”.
Consider `C=C1CC[C@H](O)C/C1=C/C=C1\CCC[C@@]2(C)[C@H]1CC[C@@H]2[C@@](C)(O)C[C@@H](O)CC(C)C` [17b, 20S,23S-dihydroxyvitamin D3], for which the “VDR activation (in words)” value on VDR is “unable to activate VDR”. Besides, the EC50 was over 1000 nM at VDR (read-out: VDRE activation (EC50, nM) Caco-2, Caco-2 cells); over 1000 nM on VDR (read-out: VDRE activation (EC50, nM) HaCaT, HaCaT cells); over 1000 nM at VDR (read-out: VDRE activation (EC50, nM) Jurkat, Jurkat cells).
With `C=C1/C(=C\C=C2/CCC[C@]3(C)[C@@H]([C@H](C)CCCC(C)(C)O)CC[C@@H]23)C[C@@H](O)C[C@@H]1O` [1,25(OH)2D3, 1α,25-dihydroxyvitamin D3], in data set [1] (rats and mice), the Calcemic effect entry was “causes hypercalcemia”.
As to `C=C1/C(=C\C=C2/CCC[C@@]3(C)[C@H]2CC[C@@H]3[C@@](C)(O)C[C@H](O)CC(C)C)C[C@@H](O)C[C@@H]1O` [18a, 1α,20S,23R(OH)3D3], the “EC50 in Jurkat cells relative to that of 18b” value at VDR (Jurkat cells) is on record as “six times lower”. In addition, in the data set with SKMEL-188 melanoma cells, the “Maximal inhibition values (in words)” value is “higher maximal inhibition values”.
